Two molecules from US20240384350A1, “METHODS OF TREATING CANCER WITH KINASE INHIBITORS” (BOARD OF REGENTS, THE UNIVERSITY OF TEXAS SYSTEM, priority 2021, published 2024) can be followed below.

What all share (test): Ba/F3 drug screening, Cell Titer Glo, IC50 Mut/WT
Common to all, as to format: cell-based
For orientation: ATP-based viability assays read luminescence as a measure of living cells.

In one assay the target is T1, EGFR S784F (Homo sapiens, UniProt P00533, S784F).
T1 construct: expressed in transfected cells; host or cells: Ba/F3 cells, retroviral pBabe-Puro vector (vector made by GeneScript from EGFR WT)
As to conditions: Classical-Like, 72 hours.

In a further assay the target is T2, EGFR L858R/V834L (Homo sapiens, UniProt P00533, L858R/V834L).
T2 construct: expressed in transfected cells; host or cells: Ba/F3 cells, retroviral pBabe-Puro vector
The note with it: Classical-Like, 72 hours.

Another assay concerns the target T3, EGFR Ex19del (Homo sapiens, UniProt P00533, DEL746-750).
T3 construct: expressed in transfected cells; host or cells: Ba/F3 cells, retroviral pBabe-Puro vector
As to conditions: Classical-Like, 72 hours.

A further assay addresses T4, EGFR L858R (Homo sapiens, UniProt P00533, L858R).
T4 construct: expressed in transfected cells; host or cells: Ba/F3 cells, retroviral pBabe-Puro vector
The note with it: Classical-Like, 72 hours.

For a further assay, the target named is T5, EGFR T725M (Homo sapiens, UniProt P00533, T725M).
T5 construct: expressed in transfected cells; host or cells: Ba/F3 cells, retroviral pBabe-Puro vector (vector made by GeneScript from EGFR WT)
The note with it: Classical-Like, 72 hours.

The next assay has as its target T6, EGFR K754E (Homo sapiens, UniProt P00533, K754E).
T6 construct: expressed in transfected cells; host or cells: Ba/F3 cells, retroviral pBabe-Puro vector
As to conditions: Classical-Like, 72 hours.

Another assay addresses T7, EGFR L861R (Homo sapiens, UniProt P00533, L861R).
T7 construct: expressed in transfected cells; host or cells: Ba/F3 cells, retroviral pBabe-Puro vector (vector made by GeneScript from EGFR WT)
The note with it: Classical-Like, 72 hours.

A further assay addresses T8, EGFR S768dupSVD V769M (Homo sapiens, UniProt P00533, INS768MDS/V769M).
T8 construct: expressed in transfected cells; host or cells: Ba/F3 cells, retroviral pBabe-Puro vector (vector made by GeneScript from EGFR S768dupSVD, c.2305G > A)
As to conditions: Ex20, 72 hours.

For a further assay, the target named is T9, EGFR N771dupN G724S (Homo sapiens, UniProt P00533, DUP771-771/G724S).
T9 construct: expressed in transfected cells; host or cells: Ba/F3 cells, retroviral pBabe-Puro vector (vector made by GeneScript from EGFR G724S, c.2313_2314insAAC)
As to conditions: Ex20, 72 hours.

A further assay deals with T10, EGFR L858R/T790M (Homo sapiens, UniProt P00533, L858R/T790M).
T10 construct: expressed in transfected cells; host or cells: Ba/F3
As to conditions: T790M-like-3S, 72 hours.

The next assay concerns the target T11, EGFR Ex19del T790M L718V (Homo sapiens, UniProt P00533, DEL746-750/L718V/T790M).
T11 construct: expressed in transfected cells; host or cells: Ba/F3
As to conditions: T790M-like-3S, 72 hours.

The next assay has as its target T12, EGFR G724S T790M (Homo sapiens, UniProt P00533, G724S/T790M).
T12 construct: expressed in transfected cells; host or cells: Ba/F3
As to conditions: T790M-like-3R, 72 hours.

The target in the next assay is T13, EGFR L858R/T790M/C797S (Homo sapiens, UniProt P00533, C797S/L858R/T790M).
T13 construct: expressed in transfected cells; host or cells: Ba/F3
The note with it: T790M-like-3R, 72 hours.

The target of the next assay is T14, EGFR E709_T710del insD (Homo sapiens, UniProt P00533, DEL709-709/T710D).
T14 construct: expressed in transfected cells; host or cells: Ba/F3
As to conditions: Ba/F3 cells, EGFR E709_T710del insD (PACC), Mut/WT.

The next assay has as its target T15, EGFR G719A L861Q (Homo sapiens, UniProt P00533, G719A/L861Q).
T15 construct: expressed in transfected cells; host or cells: Ba/F3
The note with it: Ba/F3 cells, EGFR G719A L861Q (PACC), Mut/WT.

The target of the next assay is T16, EGFR G719A/R776C (Homo sapiens, UniProt P00533, G719A/R776C).
T16 construct: expressed in transfected cells; host or cells: Ba/F3
The note with it: Ba/F3 cells, EGFR G719A/R776C (PACC), Mut/WT.

The next assay relates to EGFR I740dupIPVAK. As to conditions: Ba/F3 cells, EGFR I740dupIPVAK (PACC), Mut/WT.
The next assay concerns the target T17, EGFR L747P (Homo sapiens, UniProt P00533, L747P).
T17 construct: expressed in transfected cells; host or cells: Ba/F3
As to conditions: Ba/F3 cells, EGFR L747P (PACC), Mut/WT.

The target in the next assay is T18, EGFR L747S (Homo sapiens, UniProt P00533, L747S).
T18 construct: expressed in transfected cells; host or cells: Ba/F3
The note with it: Ba/F3 cells, EGFR L747S (PACC), Mut/WT.

A further assay has as its target T19, EGFR S768I/V769L (Homo sapiens, UniProt P00533, S768I/V769L).
T19 construct: host or cells: Ba/F3
As to conditions: Ba/F3 cells, EGFR S768I/V769L (PACC), Mut/WT.

A further assay addresses T20, EGFR S768I V774M (Homo sapiens, UniProt P00533, S768I/V774M).
T20 construct: host or cells: Ba/F3
The note with it: Ba/F3 cells, EGFR S768I V774M (PACC), Mut/WT.

A further assay concerns the target T21, EGFR Ex19del G724S (Homo sapiens, UniProt P00533, DEL746-750/G724S).
T21 construct: expressed in transfected cells; host or cells: Ba/F3
The note with it: Ba/F3 cells, EGFR Ex19del G724S (PACC), Mut/WT.

The target in the next assay is T22, EGFR L858R/L792H (Homo sapiens, UniProt P00533, L792H/L858R).
T22 construct: expressed in transfected cells; host or cells: Ba/F3
As to conditions: Ba/F3 cells, EGFR L858R/L792H (PACC), Mut/WT.

The next assay addresses T23, EGFR Ex19del L718Q (Homo sapiens, UniProt P00533, DEL746-750/L718Q).
T23 construct: expressed in transfected cells; host or cells: Ba/F3
As to conditions: Ba/F3 cells, EGFR Ex19del L718Q (PACC), Mut/WT.

In the case of `C=CC(=O)Nc1cc(Nc2ncc(C(=O)OC(C)C)c(-c3cn(C)c4ccccc34)n2)c(OC)cc1N(C)CCN(C)C` [TAK-788 (mobocertinib), mobocertinib], the “ratio of IC50 for cells with mutant EGFR to IC50 for cells with wildtype EGFR (Mut/WT)” value (“ratio of IC50 for cells with mutant EGFR” below) is recorded as 0.01487 on EGFR S784F; 0.006056 at EGFR L858R/V834L; 0.02859 on EGFR Ex19del; 0.0472 on EGFR L858R; 1.082 at EGFR T725M; 0.1738 on EGFR K754E. For the same molecule, the “ratio of IC50 for cells with mutant EGFR” value is reported as 0.3102 at EGFR L861R; 0.5446 on EGFR S768dupSVD V769M; 1.553 on EGFR N771dupN G724S; 0.7565 at EGFR L858R/T790M; 3.032 at EGFR Ex19del T790M L718V; 48.31 on EGFR G724S T790M. For the same molecule, the “ratio of IC50 for cells with mutant EGFR” value on EGFR L858R/T790M/C797S stood at 134.7. The “ratio of the IC50 value for cells with a PACC EGFR mutation to the IC50 value for cells with wildtype EGFR” value (shortened to “ratio of the IC50 value for cells”) on EGFR E709_T710del insD is on record as 0.0198; at EGFR G719A L861Q it was 1.066; at EGFR G719A/R776C, 0.8144; in the assay with EGFR I740dupIPVAK it was 7.185; on EGFR L747P it was 5.991; on EGFR L747S it was 2.299. Also, the “ratio of the IC50 value for cells” value was found to be 0.04994 at EGFR S768I/V769L; 1.227 at EGFR S768I V774M; 3.682 on EGFR Ex19del G724S; 0.0457 on EGFR L858R/L792H; 1.286 on EGFR Ex19del L718Q.
In the case of `C=CC(=O)N[C@H]1C=C(C)c2c(-c3cnc4ccccc4c3)c3c(N)ncnc3n2C1` [TAS 6417], the “ratio of IC50 for cells with mutant EGFR” value is 0.01015 at EGFR S784F; 0.0005227 at EGFR L858R/V834L; 0.00149 on EGFR Ex19del; 0.003918 on EGFR L858R; 0.02572 on EGFR T725M; 0.004475 on EGFR K754E. Moreover, the “ratio of IC50 for cells with mutant EGFR” value at EGFR L861R is recorded as 0.02984; at EGFR S768dupSVD V769M it was 0.02679; at EGFR N771dupN G724S, 0.05113; on EGFR L858R/T790M it was 0.01963; at EGFR Ex19del T790M L718V it was 0.002884; at EGFR G724S T790M, 0.1693. For the same molecule, the “ratio of IC50 for cells with mutant EGFR” value at EGFR L858R/T790M/C797S worked out at 4.897. In addition, the “ratio of the IC50 value for cells” value came out at 0.3335 on EGFR E709_T710del insD; 0.02387 at EGFR G719A L861Q; 3.055 on EGFR G719A/R776C; 0.3555 in the assay with EGFR I740dupIPVAK; 0.1949 at EGFR L747P; 0.06482 at EGFR L747S. In addition, the “ratio of the IC50 value for cells” value on EGFR S768I/V769L is on record as 0.004702; on EGFR S768I V774M, 0.3996; at EGFR Ex19del G724S, 0.2809; at EGFR L858R/L792H, 0.004611; at EGFR Ex19del L718Q, 2.333.
